Results from US7582803B2 (Amgen Inc., priority 2005, dated 2009).

target: T1, human GPR40 (Homo sapiens, UniProt O14842); assay: Cell-based aequorin assay; conditions: CHO cells stably transfected with GPR40 and aequorin; 0.01% HSA; aequorin luminescence; read-out: Relative EC50
T1 construct: expressed in transfected cells; host or cells: CHO cells
Method: Cell-based aequorin assays were employed to characterize the modulatory activity of compounds on the GPR40 signaling pathway. In an exemplary assay, CHO cells were stably transfected with both GPR40 and Aequorin (Euroscreen). Cells were detached from the tissue culture dish with 2 mL of trypsin (0.25% (w/v)). Trypsinization was halted with 28 mL of Hanks Buffered Salt Solution containing 20 mM Hepes (H/HBSS) and 0.01% fatty acid-free human serum albumin (HSA). Coelantrazine is added to 1 ug/mL, and the cells were incubated for 2 hours at room temperature. Compounds were dissolved in DMSO for preparation of 10 mM stock solutions. Compounds were diluted in H/HBSS containing 0.01% HSA. Serial dilutions of the test compounds were prepared to determine dose response.
Aequorin luminescence measurements were made using an EG&G Berthold 96-well luminometer, and the response was measured over a 20 second interval after cells and compounds were mixed. The maximum relative light units was plotted to determine dose response. The EC50 (effective concentration to reach 50% maximal response) was determined from the dose response plot.
Table 1 presents representative data (EC50 values) obtained for exemplary compounds of the invention for the relative activation of human GPR40. […]

T1 sequence (O14842 whole entry): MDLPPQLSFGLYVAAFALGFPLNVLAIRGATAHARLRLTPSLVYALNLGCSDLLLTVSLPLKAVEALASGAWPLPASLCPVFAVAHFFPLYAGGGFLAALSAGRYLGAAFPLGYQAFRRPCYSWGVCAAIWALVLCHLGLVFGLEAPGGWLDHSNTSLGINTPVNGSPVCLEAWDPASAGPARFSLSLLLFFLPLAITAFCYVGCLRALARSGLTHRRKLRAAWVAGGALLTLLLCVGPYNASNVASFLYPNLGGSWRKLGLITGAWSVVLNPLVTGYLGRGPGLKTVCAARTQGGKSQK

EC50 | Compound
10 to 100 nM | CC#C[C@@H](CC(=O)O)c1ccc(OC2CCc3cc(-c4cccs4)ccc32)cc1 (stereo partly drawn) [Example 4, (3S)-3-[4-(5-Thiophen-2-yl-indan-1-yloxy)-phenyl]-hex-4-ynoic acid]
1000 to 10000 nM | CC#C[C@@H](CC(=O)O)c1ccc(OC2CCc3c(-c4cccc(OCC)c4)cccc32)cc1 (stereo partly drawn) [Example 9, (3S)-3-{4-[4-(3-Ethoxy-phenyl)-indan-1-yloxy]-phenyl}-hex-4-ynoic acid]
1000 to 10000 nM | Cc1ccc(C(CC(=O)O)c2ccc(OC3CCc4cc(Cl)ccc43)cc2)s1 (racemic) [Example 23, (+/−)-3-(4-(5-Chloro-2,3-dihydro-1H-inden-1-yloxy)phenyl)-3-(5-methylthiophen-2-yl)propanoic acid]
> 10000 nM | Cn1ccnc1[C@@H](CC(=O)O)c1ccc(OCc2cc3c(cc2C2CC2)C(C)(C)CCC3(C)C)cc1 [Example 92, (S)-3-(4-((3-Cyclopopyl-5,5,8,8-tetramethyl-5,6,7,8-tetrahydronaphthalen-2-yl)methoxy)phenyl)-3-(1-methyl-1H-imidazol-2-yl)propanoic acid]
> 10000 nM | CC#C[C@H](CC(=O)O)c1ccc(OC2CCc3cc(-c4ccc5c(c4)OCO5)ccc32)cc1 (stereo partly drawn) [Example 60, (3R)-3-(4-(5-(Benzo[d][1,3]dioxol-5-yl)-2,3-dihydro-1H-inden-1-yloxy)phenyl)hex-4-ynoic acid]
> 10000 nM | CC#C[C@H](CC(=O)O)c1ccc(OC2CCc3cc(-c4cccc(OC(F)(F)F)c4)ccc32)cc1 (stereo partly drawn) [Example 63, (3R)-3-(4-(5-(3-(trifluoromethoxy)phenyl)-2,3-dihydro-1H-inden-1-yloxy)phenyl)hex-4-ynoic acid]
100 to 1000 nM | O=C(O)CC(c1ccc(OC2CCc3cc(Br)ccc32)cc1)n1cccn1 (stereo not drawn) [Example 47, 3-(4-(5-Bromo-2,3-dihydro-1H-inden-1-yloxy)phenyl)-3-(1H-pyrazol-1-yl)propanoic acid]
100 to 1000 nM | O=C(O)CC(c1ccc(OC2Cc3ccccc3C2)cc1)c1cc(F)cc(F)c1 (racemic) [Example 36, (+/−)3-(3,5-Difluorophenyl)-3-(4-(2,3-dihydro-1H-inden-2-yloxy)phenyl)propanoic acid]
> 10000 nM | CC#C[C@H](CC(=O)O)c1ccc(OC2CCc3cc(-c4cc(OCC)ccc4F)ccc32)cc1 (stereo partly drawn) [Example 66, (3R)-3-(4-(5-(5-Ethoxy-2-fluorophenyl)-2,3-dihydro-1H-inden-1-yloxy)phenyl)hex-4-ynoic acid]
< 10 nM | CC#C[C@@H](CC(=O)O)c1ccc(OC2CCc3cc(Cl)ccc32)cc1 (stereo partly drawn) [Example 15, (3S)-3-[4-(5-Chloro-indan-1-yloxy)-phenyl]-hex-4-ynoic acid]

tested on: islet cells; assay: Insulin secretion assay, human islet cells; format: cell-based; conditions: KRBH with 11.2 mM glucose, insulin by SPA, read-out: EC50, stimulation of insulin secretion from islet cells
Method: Human islets were isolated from cadaveric donors. Islets were treated with trypsin (0.25% (w/v) and cells were seeded in 96-well plates containing 3,000 cells per well. Cells were cultured in Roswell Park Memorial Institute (RMPI) media containing 10% fetal bovine serum.
For determination of insulin secretion, media was removed from islet cells and replaced with Krebs-Ringer bicarbonate buffer containing 10 mM HEPES (KRBH) and 2 mM glucose. After one hour incubation, media was replaced with KRBH containing 11.2 mM glucose and test compounds. Insulin released into the medium from the islet cells was measured using scintillation proximity assay (SPA).

EC50 | Compound
< 1000 nM | CC#C[C@@H](CC(=O)O)c1ccc(OC2CCc3cc(-c4cccs4)ccc32)cc1 (stereo partly drawn) [Example 4, (3S)-3-[4-(5-Thiophen-2-yl-indan-1-yloxy)-phenyl]-hex-4-ynoic acid]
< 1000 nM | CC#C[C@@H](CC(=O)O)c1ccc(OC2CCc3c(-c4cccc(OCC)c4)cccc32)cc1 (stereo partly drawn) [Example 9, (3S)-3-{4-[4-(3-Ethoxy-phenyl)-indan-1-yloxy]-phenyl}-hex-4-ynoic acid]
